Test results taken from patent publication US20220110917A1 (priority 2018, published 2022).

Assays:
[1] = oral administration in suspension; cited from earlier work
[2] = in vivo, po
[3] = human, in vivo, po
[4] = in vivo; cited from earlier work

CC(=O)[C@H]1CC[C@H]2[C@@H]3CC[C@H]4C[C@](C)(O)CC[C@]4(C)[C@H]3CC[C@]12C [ganaxolone]
Tmax [1]: 1.2 to 2.5 h
plasma half-life [1]: approximately 20 h

CCN(CC)CCN1C(=O)CN=C(c2ccccc2F)c2cc(Cl)ccc21 [Flurazepam]
residual effect on Choice Reaction Time [2]: showed significant effect
residual effect on Critical Flicker Fusion [2]: showed significant effect

Oc1noc2c1CCNC2 [gaboxadol, 4,5,6,7-tetrahydroisoxazolo [5,4-c] pyridine-3-ol]
residual effect on Choice Reaction Time [2]: did not show residual effect
residual effect on Critical Flicker Fusion [2]: did not show residual effect
residual effects on Body Sway [2]: did not show any signs of residual effects
residual effects on Digit symbol substitution test (DSST) [2]: did not show any signs of residual effects
residual effects on Leeds Sleep Evaluation Questionnaire [2]: did not show any signs of residual effects
residual effects on Memory tests [2]: did not show any signs of residual effects
residual effects on Multiple Sleep Latency Test (MSLT) [2]: did not show any signs of residual effects
residual effects on Tracking [2]: did not show any signs of residual effects
AUC0-∞ Slope (90% CI), dose proportionality [3]: 0.98 (0.95, 1.01)
Cmax Slope (90% CI), dose proportionality [3]: 0.95 (0.88, 1.02)

CC(=O)[C@H]1CC[C@H]2[C@@H]3CC[C@H]4C[C@H](O)CC[C@]4(C)[C@H]3CC[C@]12C [allopregnanolone, 3α, 5α-tetrahydroprogesterone]
half-life [4]: about 35 minutes
